# Assay results published in patent publication US11370794B2, “Toll-like receptor antagonist compounds and methods of use” (Dynavax Technologies Corporation, priority 2016, dated 2022).
# Read-outs that look alike come from different tables or passages of the source.
# Tests used:
# human TLR8 = biological target: T1, human TLR8 (Homo sapiens, UniProt Q9NR97); assay: Inhibition of human TLR8 in human monocytes (TNF-alpha / IL-1 beta ELISA); format: cell-based; settings: for IC50: human monocytes, agonist ORN8L 100 μg/mL, 24 hours; for inhibits TLR8-dependent responses (in words): summary statement of the description
# T1 construct: endogenous in cells; host or cells: primary human monocytes (CD14 microbeads) from buffy coats of healthy donors
# T1 sequence (Q9NR97 27-1041): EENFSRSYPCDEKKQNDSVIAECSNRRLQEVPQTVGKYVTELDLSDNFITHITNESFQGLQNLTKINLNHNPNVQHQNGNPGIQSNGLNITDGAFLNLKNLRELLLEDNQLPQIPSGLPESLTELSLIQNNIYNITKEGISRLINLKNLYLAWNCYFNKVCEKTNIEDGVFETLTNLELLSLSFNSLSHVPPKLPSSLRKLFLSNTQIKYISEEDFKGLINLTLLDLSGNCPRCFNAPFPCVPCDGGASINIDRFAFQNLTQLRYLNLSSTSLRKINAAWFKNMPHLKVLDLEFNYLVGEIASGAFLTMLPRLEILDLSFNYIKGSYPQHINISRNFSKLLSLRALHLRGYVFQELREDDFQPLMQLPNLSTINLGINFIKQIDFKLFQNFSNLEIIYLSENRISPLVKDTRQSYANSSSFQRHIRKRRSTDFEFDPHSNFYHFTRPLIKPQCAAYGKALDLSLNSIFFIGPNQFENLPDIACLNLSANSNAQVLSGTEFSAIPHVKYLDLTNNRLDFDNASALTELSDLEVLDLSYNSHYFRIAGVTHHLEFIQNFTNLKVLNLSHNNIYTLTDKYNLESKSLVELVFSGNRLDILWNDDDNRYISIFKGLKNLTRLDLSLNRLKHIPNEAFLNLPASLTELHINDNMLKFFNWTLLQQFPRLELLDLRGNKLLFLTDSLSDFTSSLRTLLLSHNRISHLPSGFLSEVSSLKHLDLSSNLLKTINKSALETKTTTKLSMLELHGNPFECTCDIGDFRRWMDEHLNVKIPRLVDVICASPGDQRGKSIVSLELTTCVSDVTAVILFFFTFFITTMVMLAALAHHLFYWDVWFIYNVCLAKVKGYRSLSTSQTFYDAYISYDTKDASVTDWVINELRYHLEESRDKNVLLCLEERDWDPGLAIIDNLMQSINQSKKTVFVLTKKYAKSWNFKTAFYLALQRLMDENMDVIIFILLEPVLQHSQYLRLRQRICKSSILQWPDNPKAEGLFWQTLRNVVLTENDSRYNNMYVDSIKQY
# From the text: Example B2—Inhibition of Human TLR8 in Human Monocytes
# When placed in cell culture, engagement of TLR8 with an agonist leads to expression and release of cytokines into the media.
# Buffy coats from anonymized, healthy human donors. CD14 microbeads (Milteny Cat. No. 130-050-201). TLR8 agonist, (5′-M2UGCUGCUUGUG-/glycerol/-GUGUUCGUCGUM2-5′ with M2=C6-linker, ORN8L, RNA oligonucleotide (Chem Genes Corp.). Human TNF-alpha ELISA kit (Mabtech Cat. No. 3510-1H-20). Human interleukin (IL)-1 beta ELISA kit (Mabtech Cat. No. 3415-1H-20).
# Following isolation of monocytes from buffy coats, human monocytes were plated into 96 well plates at approximately 200,000 cells per well. Test compounds were serially diluted and added to the plates. Immediately after adding test compounds, the TLR8 agonist (ORN8L, RNA oligonucleotide) was added to a final concentration of 100 μg/mL. Cells were incubated for 24 hours at 37° C. A portion of the media supernatant was analyzed for the presence of TNF-alpha and/or IL-1 beta using ELISA kits. The amount of TNF-alpha or IL-1 beta produced is a reflection of the amount of TLR8-dependent receptor activity. The IC50 values (the concentration at which 50% of the TLR8-dependent receptor activity is reduced) were calculated based upon the TLR8-dependent receptor activity over a range of different test compound concentrations.
# human TLR9 = biological target: T2, human TLR9 (Homo sapiens, UniProt Q9NR96); assay: Inhibition of human TLR9 in human B cells (IL-6 ELISA); format: cell-based; settings: for IC50: human B cells, agonist 1018 ISS 1 μM, IL-6 readout, 48 hours, range about 0.01 to 10 μM, read-out: Human TLR9 IC50; for inhibits TLR9-dependent responses (in words): summary statement of the description
# T2 construct: endogenous in cells; host or cells: primary human B cells (CD19 microbeads) from buffy coats of healthy donors
# T2 sequence (Q9NR96 26-1032): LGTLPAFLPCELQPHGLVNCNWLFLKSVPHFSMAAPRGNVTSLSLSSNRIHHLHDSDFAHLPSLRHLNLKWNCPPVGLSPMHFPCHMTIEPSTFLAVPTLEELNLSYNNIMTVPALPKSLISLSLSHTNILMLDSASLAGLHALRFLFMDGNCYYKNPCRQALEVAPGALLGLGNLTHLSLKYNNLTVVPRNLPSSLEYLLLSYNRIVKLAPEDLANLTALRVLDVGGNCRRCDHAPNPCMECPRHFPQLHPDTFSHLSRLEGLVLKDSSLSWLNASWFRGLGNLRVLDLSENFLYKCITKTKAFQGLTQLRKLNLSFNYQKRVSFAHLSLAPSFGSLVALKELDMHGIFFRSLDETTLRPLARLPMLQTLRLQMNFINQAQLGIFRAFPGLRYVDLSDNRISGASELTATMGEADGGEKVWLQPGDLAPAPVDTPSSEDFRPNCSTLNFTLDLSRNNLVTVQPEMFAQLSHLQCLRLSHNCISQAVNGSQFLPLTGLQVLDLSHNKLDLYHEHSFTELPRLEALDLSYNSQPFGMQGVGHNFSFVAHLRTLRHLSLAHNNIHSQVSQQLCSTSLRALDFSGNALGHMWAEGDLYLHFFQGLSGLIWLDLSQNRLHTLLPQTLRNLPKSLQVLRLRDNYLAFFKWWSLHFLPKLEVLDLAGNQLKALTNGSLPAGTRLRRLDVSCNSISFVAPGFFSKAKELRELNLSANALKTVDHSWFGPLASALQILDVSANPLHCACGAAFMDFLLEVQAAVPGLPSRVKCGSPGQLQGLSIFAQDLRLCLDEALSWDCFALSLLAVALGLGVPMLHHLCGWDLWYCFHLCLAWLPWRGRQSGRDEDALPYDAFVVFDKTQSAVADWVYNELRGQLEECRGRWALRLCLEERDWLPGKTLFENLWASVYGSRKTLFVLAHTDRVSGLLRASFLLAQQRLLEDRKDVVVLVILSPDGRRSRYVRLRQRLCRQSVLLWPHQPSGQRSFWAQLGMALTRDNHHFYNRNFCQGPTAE
# Experimental: Example B3—Inhibition of Human TLR9 in Human B Cells
# When placed in cell culture, engagement of TLR9 with an agonist leads to expression and release of cytokines into the media.
# Buffy coats from anonymized, healthy human donors. CD19 microbeads (Miltenyi Cat. No. 130-050-301). TLR9 agonist, 1018 ISS, CpG-containing DNA oligonucleotide. Human interleukin (IL)-6 ELISA kit (Mabtech Cat. No. 3460-1H-20).
# Following isolation of […] from buffy coats, human B cells were plated into 96 well plates at approximately 300,000 cells per well. Test compounds were serially diluted and added to the plates. Test compounds were typically assayed using a concentration range from about 0.01 μM to about 10 μM. Certain test compounds were further assayed in an expanded dilution series using a compound concentration range from about 0.001 μM to about 30 μM. Immediately after adding test compounds, the TLR9 agonist (1018 ISS, CpG-containing DNA oligonucleotide) was added to a final concentration of 1 μM. Cells were incubated for 48 hours at 37° C. A portion of the media supernatant was analyzed for the presence of IL-6 using ELISA kits. The amount of IL-6 produced is a reflection of the amount of TLR9-dependent receptor activity. The IC50 values (the concentration at which 50% of the TLR9-dependent receptor activity is reduced) were calculated based upon the TLR9-dependent receptor activity over a range of different test compound concentrations.
# [1] = IL-1 beta readout, read-out: Human TLR8 IC50 IL-1b
# [2] = TNF-alpha readout, read-out: Human TLR8 IC50 TNF-a
Structure (SMILES),IC50 (human TLR8; [1]) [nM],IC50 (human TLR8; [2]) [nM],IC50 (human TLR9) [nM],inhibits TLR9-dependent responses (in words) (human TLR9),inhibits TLR8-dependent responses (in words) (human TLR8)
"Cc1nnc(N2CCC(C(=O)NCCCN3CCN(C)CC3)CC2)c2nn(-c3ccccc3)c(C)c12 [31x, 1-(3,4-dimethyl-2-phenyl-2H-pyrazolo[3,4-d]pyridazin-7-yl)-N-(3-(4-methylpiperazin-1-yl)propyl)piperidine-4-carboxamide]",> 10000,> 10000,211,–,–
"Cc1nnc(N2CCC(C(=O)NCCN3CCOCC3)CC2)c2nn(-c3ccccc3)c(C)c12 [32x, 1-(3,4-dimethyl-2-phenyl-2H-pyrazolo[3,4-d]pyridazin-7-yl)-N-(2-morpholinoethyl)piperidine-4-carboxamide]",> 10000,> 10000,341,–,–
"Cc1ccc(-n2nc3c(N4CCCC(C(=O)NCCN(C)C)C4)nnc(C)c3c2C)cc1 (stereo not shown) [45x, 1-(3,4-dimethyl-2-(p-tolyl)-2H-pyrazolo[3,4-d]pyridazin-7-yl)-N-(2-(dimethylamino)ethyl)piperidine-3-carboxamide]",–,≥ 20000,9,–,–
"Cc1nnc(N2CCCC(C(=O)NCCCN3CCOCC3)C2)c2nn(-c3ccccc3)c(C)c12 (stereo not shown) [49x, 1-(3,4-dimethyl-2-phenyl-2H-pyrazolo[3,4-d]pyridazin-7-yl)-N-(3-morpholinopropyl)piperidine-3-carboxamide]",3940,3560,29,–,–
"CCN1CCN(C(=O)C2CCN(c3nnc(C)c4c(C)n(-c5ccc(C)cc5)nc34)CC2)CC1 [51x, (1-(3,4-dimethyl-2-(p-tolyl)-2H-pyrazolo[3,4-d]pyridazin-7-yl)piperidin-4-yl)(4-ethylpiperazin-1-yl)methanone]",330,230,6,inhibit,inhibit
"Cc1nnc(N2CCC(C(=O)N3CCN(C)CC3)CC2)c2nn(-c3ccccc3)c(C)c12 [59x, (1-(3,4-dimethyl-2-phenyl-2H-pyrazolo[3,4-d]pyridazin-7-yl)piperidin-4-yl)(4-methylpiperazin-1-yl)methanone]",2110,2040,59,–,–
"CCCN1CCN(C(=O)C2CCN(c3nnc(C)c4c(C)n(-c5ccccc5)nc34)CC2)CC1 [64x, (1-(3,4-dimethyl-2-phenyl-2H-pyrazolo[3,4-d]pyridazin-7-yl)piperidin-4-yl)(4-propylpiperazin-1-yl)methanone]",660,900,13,–,–

# Second part, the compound after the results:
IC50 (human TLR8; [1]) [nM],IC50 (human TLR8; [2]) [nM],IC50 (human TLR9) [nM],inhibits TLR9-dependent responses (in words) (human TLR9),inhibits TLR8-dependent responses (in words) (human TLR8),Structure (SMILES)
4540,4850,41,inhibit,–,"CCCCN(CC)CCNC(=O)C1CCN(c2nnc(C)c3c(C)n(-c4ccccc4)nc23)CC1 [25x, N-(2-(butyl(ethyl)amino)ethyl)-1-(3,4-dimethyl-2-phenyl-2H-pyrazolo[3,4-d]pyridazin-7-yl)piperidine-4-carboxamide]"
> 10000,> 10000,70,–,–,"CCN1CCCC1CNC(=O)C1CCN(c2nnc(C)c3c(C)n(-c4ccccc4)nc23)CC1 (stereo not shown) [33x, 1-(3,4-dimethyl-2-phenyl-2H-pyrazolo[3,4-d]pyridazin-7-yl)-N-((1-ethylpyrrolidin-2-yl)methyl)piperidine-4-carboxamide]"
740,290,4,inhibit,inhibit,"COc1ccc(-n2nc3c(N4CCCC(C(=O)NCCN(C)C)C4)nnc(C)c3c2C)cc1 (stereo not shown) [54x, N-(2-(dimethylamino)ethyl)-1-(2-(4-methoxyphenyl)-3,4-dimethyl-2H-pyrazolo[3,4-d]pyridazin-7-yl)piperidine-3-carboxamide]"
1010,1120,18,–,–,"CCCN1CCN(C(=O)C2CCCN(c3nnc(C)c4c(C)n(-c5ccccc5)nc34)C2)CC1 (stereo not shown) [63x, (1-(3,4-dimethyl-2-phenyl-2H-pyrazolo[3,4-d]pyridazin-7-yl)piperidin-3-yl)(4-propylpiperazin-1-yl)methanone]"
